Assay results taken from US10681909B2, “Herbicidal triazoles” (FMC Corporation, priority 2014, dated 2020).

Legend:
[1] = system: ryegrass, Italian; test: Test A postemergence; assay type: in vivo, Lolium multiflorum; settings: 0 to 100 scale (0 no effect, 100 complete control), approx. 10 d
Procedure, shortened: (§1)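 Ratings reflect visual injury after ~10 d in greenhouse, 0 = no effect, 100 = complete control. Postemergence treatment was applied to one- to two-leaf seedlings; preemergence treatment was a directed soil spray at planting.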

[2] = system: galium; test: Test A postemergence; assay type: in vivo, Galium aparine; settings: 0 to 100 scale (0 no effect, 100 complete control), approx. 10 d
Procedure, shortened: as §1

[3] = system: wheat (winter wheat); test: Test C preemergence; assay type: in vivo, Triticum aestivum; settings: for Wheat plant response rating (0 to 100): Preemergence, visual rating after 13 to 15 d; for Plant response rating (scale of 0 to 100 where 0 is no effect and 100 is complete control): Wheat, preemergence, 250 g ai/ha
Description: (§2) Seeds of plant species selected from blackgrass (Alopecurus myosuroides), ryegrass, Italian (Italian ryegrass, Lolium multiflorum), wheat (winter wheat, Triticum aestivum), galium (catchweed bedstraw, Galium aparine), corn (Zea mays), crabgrass, large (large crabgrass, Digitaria sanguinalis), foxtail, giant, (giant foxtail, Setaria faberii), johnsongrass (Sorghum halepense), lambsquarters (Chenopodium album), morningglory (Ipomoea coccinea), nutsedge, yellow (yellow nutsedge, Cyperus esculentus), pigweed (Amaranthus retroflexus), ragweed (common ragweed, Ambrosia elatior), soybean (Glycine max), barnyardgrass (Echinochloa crus-galli), oilseed rape (Brassica napus), waterhemp (common waterhemp, Amaranthus rudis), and velvetleaf (Abutilon theophrasti) were planted into a blend of loam soil and sand and treated preemergence with test chemicals formulated in a non-phytotoxic solvent mixture which included a surfactant. At the same time, plants selected from these crop and weed species and also chickweed (common chickweed, Stellaria media), oat, wild (wild oat, Avena fatua), and kochia (Kochia scoparia), were planted in pots containing Sunshine Redi-Earth® planting medium comprising spaghnum peat moss, vermiculite, starter nutrients and dolomitic limestone and treated with postemergence applications of test chemicals formulated in the same manner. Plants ranged in height from 2 to 18 cm (1- to 4-leaf stage) for postemergence treatments. […] A dash (-) response means no test result.

[4] = system: barnyardgrass; test: Test C preemergence; assay type: in vivo, Echinochloa crus-galli; settings: for Plant response rating (scale of 0 to 100 where 0 is no effect and 100 is complete control): Barnyardgrass, preemergence; for Barnyardgrass plant response rating (0 to 100): Preemergence, visual rating after 13 to 15 d
Description: as §2

[5] = system: bluegrass; test: Test D preemergence; assay type: in vivo, Poa annua; settings: for Plant response rating (0 to 100), Bluegrass: 16 g ai/ha, 0 is no effect, 100 is complete control; for Plant response rating: Bluegrass: scale 0 to 100
Description: (§3) Seeds of plant species selected from bluegrass (annual bluegrass, Poa annua), blackgrass (Alopecurus myosuroides), canarygrass (Phalaris minor), chickweed (common chickweed, Stellaria media), galium (catchweed bedstraw, Galium aparine), bromegrass, down (downy bromegrass, Bromus tectorum), Russian thistle (Salsola kali), field poppy (Papaver rhoeas), field violet (Viola arvensis), foxtail, green (green foxtail, Setaria viridis), deadnettle (henbit deadnettle, Lamium amplexicaule), ryegrass, Ital. (Italian ryegrass, Lolium multiflorum), kochia (Kochia scoparia), lambsquarters (Chenopodium album), oilseed rape (Brassica napus), pigweed (Amaranthus retroflexus), chamomile (scentless chamomile, Matricaria inodora), speedwell (bird's-eye speedwell, Veronica persica), barley, spring (spring barley, Hordeum vulgare), wheat, spring (spring wheat, Triticum aestivum), buckwheat, wild (wild buckwheat, Polygonum convolvulus), wild mustard (Sinapis arvensis), oat, wild (wild oat, Avena fatua), radish, wild (wild radish, Raphanus raphanistrum), […]), barley, winter (winter barley, Hordeum vulgare), and wheat, winter (winter wheat, Triticum aestivum) were planted into a silt loam soil and treated preemergence with test chemicals formulated in a non-phytotoxic solvent mixture which included a surfactant. At the same time, these species were planted in pots containing Sunshine Redi-Earth® planting medium comprising spaghnum peat moss, vermiculite, starter nutrients and dolomitic limestone and treated with postemergence applications of the test chemicals formulated in the same manner. Plants ranged in height from 2 to 18 cm (1- to 4-leaf stage). Treated plants and controls were maintained in a controlled growth environment for 14 to 21 d after which time all species were compared to controls and visually evaluated. […] A dash (-) response means no test result.

[6] = system: foxtail, green; test: Test D preemergence; assay type: in vivo, Setaria viridis; settings: for Plant response rating (0 to 100), Foxtail, Green: 16 g ai/ha, 0 is no effect, 100 is complete control; for Plant response rating: Foxtail, Green: scale 0 to 100
Description: as §3

[7] = system: kochia; test: Test D postemergence; assay type: in vivo, Kochia scoparia; settings: scale 0 to 100
Description: as §3

[8] = system: barley, spring; test: Test D postemergence; assay type: in vivo, Hordeum vulgare; settings: scale 0 to 100
Description: as §3

[9] = system: barley, winter; test: Test D postemergence; assay type: in vivo, Hordeum vulgare; settings: scale 0 to 100
Description: as §3

## FC(F)(F)COc1nc(-c2ccc(Cl)cc2)nn1Cc1ccnc(C(F)(F)F)c1 [Compound 31]
[1]; 125 g ai/ha
  Plant response rating, Ryegrass, Italian: 50
[1]; 500 g ai/ha
  Plant response rating, Ryegrass, Italian: 80
[2]; 125 g ai/ha
  Plant response rating, Galium: 70
[2]; 500 g ai/ha
  Plant response rating, Galium: 90
[3]; 31 g ai/ha
  Wheat plant response rating (0 to 100): 0
[3]; 62 g ai/ha
  Wheat plant response rating (0 to 100): 5
[3]
  Plant response rating (scale of 0 to 100 where 0 is no effect and 100 is complete control): 35
[4]; 125 g ai/ha
  Plant response rating (scale of 0 to 100 where 0 is no effect and 100 is complete control): 90
[4]; 250 g ai/ha
  Plant response rating (scale of 0 to 100 where 0 is no effect and 100 is complete control): 95
[4]; 31 g ai/ha
  Barnyardgrass plant response rating (0 to 100): 70
[4]; 62 g ai/ha
  Barnyardgrass plant response rating (0 to 100): 80
[5]
  Plant response rating (0 to 100), Bluegrass: 55
[5]; 31 g ai/ha
  Plant response rating: Bluegrass: 65
[5]; 62 g ai/ha
  Plant response rating: Bluegrass: 95
[5]; 125 g ai/ha
  Plant response rating: Bluegrass: 100
[6]
  Plant response rating (0 to 100), Foxtail, Green: 95
[6]; 62 g ai/ha
  Plant response rating: Foxtail, Green: 100
[6]; 125 g ai/ha
  Plant response rating: Foxtail, Green: 100
[7]; 16 g ai/ha
  Plant response rating: Kochia: 80
[7]; 31 g ai/ha
  Plant response rating: Kochia: 85
[7]; 62 g ai/ha
  Plant response rating: Kochia: 90
[7]; 125 g ai/ha
  Plant response rating: Kochia: 95
[8]; 16 g ai/ha
  Plant response rating: Barley, Spring: 35
[8]; 31 g ai/ha
  Plant response rating: Barley, Spring: 45
[8]; 62 g ai/ha
  Plant response rating: Barley, Spring: 45
[8]; 125 g ai/ha
  Plant response rating: Barley, Spring: 50
[9]; 16 g ai/ha
  Plant response rating: Barley, Winter: 25
[9]; 31 g ai/ha
  Plant response rating: Barley, Winter: 35
[9]; 62 g ai/ha
  Plant response rating: Barley, Winter: 40
[9]; 125 g ai/ha
  Plant response rating: Barley, Winter: 50

## CCOc1nc(-c2ccc(C(F)(F)F)cc2)nn1Cc1ccnc(C(F)(F)F)c1 [Compound 35, 4-[[5-ethoxy-3-[4-(trifluoromethyl)phenyl]-1H-1,2,4-triazole-1-yl]methyl]-2-(trifluoromethyl)pyridine]
[1]; 31 g ai/ha
  Plant response rating, Ryegrass, Italian: 30
[1]; 125 g ai/ha
  Plant response rating, Ryegrass, Italian: 60
[2]; 31 g ai/ha
  Plant response rating, Galium: 90
[2]; 125 g ai/ha
  Plant response rating, Galium: 90
[3]; 31 g ai/ha
  Wheat plant response rating (0 to 100): 5
[3]; 62 g ai/ha
  Wheat plant response rating (0 to 100): 5
[3]
  Plant response rating (scale of 0 to 100 where 0 is no effect and 100 is complete control): 35
[4]; 125 g ai/ha
  Plant response rating (scale of 0 to 100 where 0 is no effect and 100 is complete control): 98
[4]; 250 g ai/ha
  Plant response rating (scale of 0 to 100 where 0 is no effect and 100 is complete control): 100
[4]; 31 g ai/ha
  Barnyardgrass plant response rating (0 to 100): 85
[4]; 62 g ai/ha
  Barnyardgrass plant response rating (0 to 100): 90
[5]
  Plant response rating (0 to 100), Bluegrass: 70
[5]; 31 g ai/ha
  Plant response rating: Bluegrass: 80
[5]; 62 g ai/ha
  Plant response rating: Bluegrass: 95
[5]; 125 g ai/ha
  Plant response rating: Bluegrass: 100
[6]
  Plant response rating (0 to 100), Foxtail, Green: 70
[6]; 62 g ai/ha
  Plant response rating: Foxtail, Green: 100
[6]; 125 g ai/ha
  Plant response rating: Foxtail, Green: 100
[7]; 16 g ai/ha
  Plant response rating: Kochia: 90
[7]; 31 g ai/ha
  Plant response rating: Kochia: 90
[7]; 62 g ai/ha
  Plant response rating: Kochia: 90
[7]; 125 g ai/ha
  Plant response rating: Kochia: 90
[8]; 16 g ai/ha
  Plant response rating: Barley, Spring: 30
[8]; 31 g ai/ha
  Plant response rating: Barley, Spring: 40
[8]; 62 g ai/ha
  Plant response rating: Barley, Spring: 40
[8]; 125 g ai/ha
  Plant response rating: Barley, Spring: 50
[9]; 16 g ai/ha
  Plant response rating: Barley, Winter: 25
[9]; 31 g ai/ha
  Plant response rating: Barley, Winter: 40
[9]; 62 g ai/ha
  Plant response rating: Barley, Winter: 40
[9]; 125 g ai/ha
  Plant response rating: Barley, Winter: 50
